Test results published in patent US10800767B2, “Thyroid hormone receptor beta agonist compounds” (Terns, Inc., priority 2018, dated 2020).

What was measured:
[1] = biological target: TR alpha-LBD (thyroid hormone receptor alpha) (Homo sapiens (Human), UniProt P10827); assay: LanthaScreen TR-FRET Thyroid Receptor alpha Coactivator Assay (agonist screening); assay type: biochemical; conditions: TR alpha-LBD 0.4 nM, 2 hour incubation, average of duplicate runs, read-out: EC50 THRα-FRET
Method: (§1) Example B1: Time-Resolved Fluorescence Resonance Energy Transfer (TR-FRET) Assay for Thyroid Hormone Receptor Agonist Screening
(§2) LanthaScreen™ TR-FRET Thyroid Receptor alpha Coactivator Assay kit (ThermoFisher) and LanthaScreen™ TR-FRET Thyroid Receptor beta Coactivator Assay kit (ThermoFisher) were used for agonist compound screening. Compounds in DMSO were diluted using ECHO Liquid Handler (Labcyte Inc.) into 384 plates in 10-point 3-fold series in duplicate (5 micro M final top concentration). Buffer C (ThermoFisher) was added to each well before the 4× mixture of fluorescein-SCR2-2 coactivator (200 nM final concentration), Terbium-labeled anti-GST antibody (2 nM final concentration), and TR alpha-LBD (0.4 nM final concentration) or TR beta-LBD (1.0 nM final concentration) was added. After 2 hour incubation at room temperature in dark, the TR-FRET signal was measured on an EnVision plate reader (PerkinElmer) with excitation at 340 nm and dual emission readout at 495 and 520 nm with the delay time of 100 micro second and the integration time of 200 micro second. The ratio of emission signal at 520 and at 495 was used to calculate EC50 using GraphPad Prism (GraphPad Software). In every batch of compound screening, T3 (L-3,3′,5-Triiodothyronine sodium salt, >95%) (Calbiochem) was used as reference compound. The EC50 of T3 measured were within 3-fold of the reference value provided by the assay kit manufacturer (ThermoFisher Scientific). The Z′ factors measured in every batch of screening using T3 as high percent effect (HPE) control and 0.5% DMSO as zero percent effect (ZPE) control were in the range of 0.5 to 0.8. Compounds' THR-beta selectivity values are derived from T3-selectivity normalized data.

[2] = biological target: TR beta-LBD (thyroid hormone receptor beta) (Homo sapiens (Human), UniProt P10828); assay: LanthaScreen TR-FRET Thyroid Receptor beta Coactivator Assay (agonist screening); assay type: biochemical; conditions: for THRβ-Selectivity: THR beta over THR alpha, derived from T3-selectivity normalized data; for EC50: TR-FRET coactivator assay, TR beta-LBD 1.0 nM, 2 hour incubation, average of duplicate runs, read-out: EC50 THRβ-FRET
TR beta-LBD (thyroid hormone receptor beta), sequence (P10828 217-461): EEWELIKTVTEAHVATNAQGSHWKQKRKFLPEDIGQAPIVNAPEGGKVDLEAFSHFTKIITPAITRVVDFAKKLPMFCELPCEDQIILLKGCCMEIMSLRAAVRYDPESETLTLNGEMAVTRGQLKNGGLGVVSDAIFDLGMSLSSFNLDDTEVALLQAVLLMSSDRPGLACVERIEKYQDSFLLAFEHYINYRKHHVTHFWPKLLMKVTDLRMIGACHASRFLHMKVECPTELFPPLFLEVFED
Method: as §1, §2

TR alpha-LBD (thyroid hormone receptor alpha), sequence (P10827 other isoform, or with tags, fused parts or gaps del 1-162, other chains not shown): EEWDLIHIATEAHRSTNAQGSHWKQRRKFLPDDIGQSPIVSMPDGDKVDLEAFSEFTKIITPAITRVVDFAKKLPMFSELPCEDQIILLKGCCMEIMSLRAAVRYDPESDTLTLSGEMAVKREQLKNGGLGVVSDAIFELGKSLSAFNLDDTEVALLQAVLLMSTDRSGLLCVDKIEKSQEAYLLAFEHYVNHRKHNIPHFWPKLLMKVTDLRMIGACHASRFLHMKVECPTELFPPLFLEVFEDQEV

SMILES	EC50 [1] [µM]	THRβ-Selectivity [2]	EC50 [2] [µM]
CC(C)c1cc(Oc2c(Cl)cc(NC(C)c3noc(=O)[nH]3)cc2Cl)nn(C)c1=O (single isomer, unassigned) [Example 3-P1, 3-(1-((3,5-dichloro-4-((5-isopropyl-1-methyl-6-oxo-1,6-dihydropyridazin-3-yl)oxy)phenyl)amino)ethyl)-1,2,4-oxadiazol-5(4H)-one]	0.0759	1.0	0.277
CC(C)c1cc(Oc2c(Cl)cc(NC(C)c3noc(=O)[nH]3)cc2Cl)nn(C)c1=O (single isomer, unassigned) [Example 3-P2, 3-(1-((3,5-dichloro-4-((5-isopropyl-1-methyl-6-oxo-1,6-dihydropyridazin-3-yl)oxy)phenyl)amino)ethyl)-1,2,4-oxadiazol-5(4H)-one]	0.817	4.2	0.732
CC(C)c1cc(Oc2c(Cl)cc(NCc3noc(=O)[nH]3)cc2Cl)nn(C)c1=O [Example 1, 3-(((3,5-dichloro-4-((5-isopropyl-1-methyl-6-oxo-1,6-dihydropyridazin-3-yl)oxy)phenyl)amino)methyl)-1,2,4-oxadiazol-5(4H)-one]	0.0495	17.2	0.0076
CC(C)c1cc(Oc2c(Cl)cc(N(C)Cc3noc(=O)[nH]3)cc2Cl)nn(C)c1=O [Example 2, 3-(((3,5-dichloro-4-((5-isopropyl-1-methyl-6-oxo-1,6-dihydropyridazin-3-yl)oxy)phenyl)(methyl)amino)methyl)-1,2,4-oxadiazol-5(4H)-one]	> 5		> 5
CC(C)c1cc(Oc2c(Cl)cc(NC(=O)c3noc(=O)[nH]3)cc2Cl)nn(C)c1=O [Example 4, N-(3,5-dichloro-4-((5-isopropyl-1-methyl-6-oxo-1,6-dihydropyridazin-3-yl)oxy)phenyl)-5-oxo-4,5-dihydro-1,2,4-oxadiazole-3-carboxamide]	0.314	31.7	0.0271
CC(C)c1cc(Oc2c(Cl)cc(NCc3noc(=O)[nH]3)cc2Cl)n[nH]c1=O [Example 5, 3-(((3,5-dichloro-4-((5-isopropyl-6-oxo-1,6-dihydropyridazin-3-yl)oxy)phenyl)amino)methyl)-1,2,4-oxadiazol-5(4H)-one]	0.469	27.8	0.0742
CC(C)c1cc(Oc2c(Cl)cc(OCc3noc(=O)[nH]3)cc2Cl)nn(C)c1=O [Example 6, 3-((3,5-dichloro-4-((5-isopropyl-1-methyl-6-oxo-1,6-dihydropyridazin-3-yl)oxy)phenoxy)methyl)-1,2,4-oxadiazol-5(4H)-one]	0.078	3.6	0.0581
CC(C)c1cc(Oc2c(Cl)cc(-c3cc(=O)[nH]o3)cc2Cl)nn(C)c1=O [Example 7, 5-(3,5-dichloro-4-((5-isopropyl-1-methyl-6-oxo-1,6-dihydropyridazin-3-yl)oxy)phenyl)isoxazol-3(2H)-one]	0.473	13.1	0.0609
CC(C)c1cc(Oc2c(Cl)cc(-c3cc(=O)[nH]o3)cc2Cl)n[nH]c1=O [Example 8, 5-(3,5-dichloro-4-((5-isopropyl-6-oxo-1,6-dihydropyridazin-3-yl)oxy)phenyl)isoxazol-3(2H)-one]	2.3	7	0.896
CC(C)c1cc(Oc2c(Cl)cc(-c3noc(=O)[nH]3)cc2Cl)n[nH]c1=O [Example 9, 3-[3,5-dichloro-4-[(5-isopropyl-6-oxo-1H-pyridazin-3-yl)oxy]phenyl]-4H-1,2,4-oxadiazol-5-one]	0.126	0.7	0.29
Cc1c(NC(=O)c2noc(=O)[nH]2)cc(Cl)c(Oc2cc(C(C)C)c(=O)n(C)n2)c1Cl [Example 11, N-(3,5-dichloro-4-((5-isopropyl-1-methyl-6-oxo-1,6-dihydropyridazin-3-yl)oxy)-2-methylphenyl)-5-oxo-4,5-dihydro-1,2,4-oxadiazole-3-carboxamide]	0.192	4.8	0.116
Cc1c(NCc2noc(=O)[nH]2)cc(Cl)c(Oc2cc(C(C)C)c(=O)n(C)n2)c1Cl [Example 12, 3-(((3,5-dichloro-4-((5-isopropyl-1-methyl-6-oxo-1,6-dihydropyridazin-3-yl)oxy)-2-methylphenyl)amino)methyl)-1,2,4-oxadiazol-5(4H)-one]	0.152	6.2	0.0712
CC(C)c1cc(Cc2c(Cl)cc(NC(=O)c3noc(=O)[nH]3)cc2Cl)n[nH]c1=O [Example 13, N-(3,5-dichloro-4-((5-isopropyl-6-oxo-1,6-dihydropyridazin-3-yl)methyl)phenyl)-5-oxo-4,5-dihydro-1,2,4-oxadiazole-3-carboxamide]	1.63	86.5	0.0536
CC(C)c1cc(Cc2c(Cl)cc(NC(=O)c3noc(=O)[nH]3)cc2Cl)nn(C)c1=O [Example 14, N-(3,5-dichloro-4-((5-isopropyl-1-methyl-6-oxo-1,6-dihydropyridazin-3-yl)methyl)phenyl)-5-oxo-4,5-dihydro-1,2,4-oxadiazole-3-carboxamide]	0.549	48	0.0466
CC(C)c1cc(Cc2c(Cl)cc(NCc3noc(=O)[nH]3)cc2Cl)n[nH]c1=O [Example 15, 3-(((3,5-dichloro-4-((5-isopropyl-6-oxo-1,6-dihydropyridazin-3-yl)methyl)phenyl)amino)methyl)-1,2,4-oxadiazol-5(4H)-one]	0.102	11.7	0.0315
CC(C)c1cc(Cc2c(Cl)cc(NCc3noc(=O)[nH]3)cc2Cl)nn(C)c1=O [Example 16, 3-(((3,5-dichloro-4-((5-isopropyl-1-methyl-6-oxo-1,6-dihydropyridazin-3-yl)methyl)phenyl)amino)methyl)-1,2,4-oxadiazol-5(4H)-one]	0.0824	6.7	0.0442
CC(C)c1cc(C(=O)c2c(Cl)cc(NC(=O)c3noc(=O)[nH]3)cc2Cl)nn(C)c1=O [Example 17, N-(3,5-dichloro-4-(5-isopropyl-1-methyl-6-oxo-1,6-dihydropyridazine-3-carbonyl)phenyl)-5-oxo-4,5-dihydro-1,2,4-oxadiazole-3-carboxamide]	> 5	>7.2	2.11
CC(C)c1cc(C(=O)c2c(Cl)cc(NCc3noc(=O)[nH]3)cc2Cl)nn(C)c1=O [Example 18, 3-(((3,5-dichloro-4-(5-isopropyl-1-methyl-6-oxo-1,6-dihydropyridazine-3-carbonyl)phenyl)amino)methyl)-1,2,4-oxadiazol-5(4H)-one]	0.55	6.1	0.271
CC(C)c1cc(S(=O)(=O)c2c(Cl)cc(NCc3noc(=O)[nH]3)cc2Cl)nn(C)c1=O [Example 19, 3-(((3,5-dichloro-4-((5-isopropyl-1-methyl-6-oxo-1,6-dihydropyridazin-3-yl)sulfonyl)phenyl)amino)methyl)-1,2,4-oxadiazol-5(4H)-one]	1.93		> 5
CC(C)c1cc(S(=O)(=O)c2c(Cl)cc(NC(=O)c3noc(=O)[nH]3)cc2Cl)nn(C)c1=O [Example 20, N-(3,5-dichloro-4-((5-isopropyl-1-methyl-6-oxo-1,6-dihydropyridazin-3-yl)sulfonyl)phenyl)-5-oxo-4,5-dihydro-1,2,4-oxadiazole-3-carboxamide]	> 5		> 5
O=C(Nc1cc(Cl)c(Cc2cc(C3CC3)c(=O)[nH]n2)c(Cl)c1)c1noc(=O)[nH]1 [Example 21, N-(3,5-dichloro-4-((5-cyclopropyl-6-oxo-1,6-dihydropyridazin-3-yl)methyl)phenyl)-5-oxo-4,5-dihydro-1,2,4-oxadiazole-3-carboxamide]	> 5	>113	0.18
Cn1nc(Cc2c(Cl)cc(NC(=O)c3noc(=O)[nH]3)cc2Cl)cc(C2CC2)c1=O [Example 22, N-(3,5-dichloro-4-((5-cyclopropyl-1-methyl-6-oxo-1,6-dihydropyridazin-3-yl)methyl)phenyl)-5-oxo-4,5-dihydro-1,2,4-oxadiazole-3-carboxamide]	0.898	19.5	0.181
CC(C)c1cc(Oc2c(Cl)cc(NC(=O)c3noc(=O)[nH]3)cc2Cl)n[nH]c1=O [Example 23, N-(3,5-dichloro-4-((5-isopropyl-6-oxo-1,6-dihydropyridazin-3-yl)oxy)phenyl)-5-oxo-4,5-dihydro-1,2,4-oxadiazole-3-carboxamide]	1.32	67.3	0.0873
